Test results as given in patent US20250177525A1, “POLYDONOR CD4+ T CELLS EXPRESSING IL-10 AND USES THEREOF” (TR1X, INC., priority 2021, published 2025).

Test system: NLPR3 inflammasome
Assay: IL-1β production by LPS activated monocytes
Type: cell-based, human
Conditions: anti-IL-10R antibody
Experimental: CD14^+ monocytes were isolated from PBMC using a pan monocyte isolation kit (Miltenyi Biotec, Bergisch Gladbach, Germany) and plated in 96 flat microtiter wells at 2×10^5/200 μL per well and cultured in the presence of LPS. The cells were cultured further in the presence of Z-YVADfmk (20 microMol), MMC950 (10 microMol), IL-10 (10 ng/mL) or various concentrations of single- or pooled donor CD4^IL-10 cell supernatants as summarized in Table 1.
The supernatants were obtained from single- or pooled donor CD4^IL-10 cells activated for 72 hours with a combination of CD3 and CD28 antibodies as described previously. (Andolfi et al. 2012, Mol. Therapy Vol. 20, 1778-1790, Locafaro et al. Mol Ther 2017, 25, 2254) In some cases (FIGS. 19C and 19D), the monocytes were incubated with LPS in combination with the NLPR3 inflammasome activator nigericin (“NIG”) which was added during the last 30 minutes of the LPS activation.
The NLPR3 inflammasome was activated by LPS, resulting in the production of mature caspase 1 and the biologically active forms of IL-1β and IL-18.

Compound	effect of anti-IL-10 receptor antibody on the inhibitory effects
CC(C)(O)c1coc(S(=O)(=O)NC(=O)Nc2c3c(cc4c2CCC4)CCC3)c1 [MCC950]	no effect
Z-YVADfmk [Z-VADfmk]	no effect
